Data: US5312833A, “Method of inhibiting tumor growth using xanthocillin X dimethylether” (Meiji Seika Kaisha, Ltd., priority 1990, dated 1994)
Converted amounts (≈) assume the structure as drawn.

Columns and labels:
Meth-A solid tumor = test: Suppression of growth of Meth-A solid tumor in Balb/c mice; type: in vivo
Method: 0.1 ml of 10^7 cells/ml of murine fibrosarcoma Meth-A (ascites) were inoculated subcutaneously into Balb/c mice (6-week-old, females) and the test agent was injected intraperitoneally into the mice on the next day.
The test compound had been thoroughly pulverized in a mortar, suspended in 1% carboxymethylcellulose (CMC), and mixed well using ultrasonic. The test compound was administered once daily for 4 consecutive days. Following 2 weeks of rearing, the tumor on the back was excised and its weight was recorded. The percentage by which tumor development was suppressed was computed as follows: {(tumor weight of the control-tumor weight of the test group)/tumor weight of the control group}×100.

B16 = test: In vitro cytotoxicity, MTT assay, B16; type: cell-based; details: Mus musculus, 72 h, 3 days incubation, read-out: IC50 (drug concentration to kill 50% of the cells)
Method: (§1) The effect of a preparation containing xanthocillin X dimethylether on cancer cells was determined by an in vitro test. For a medium, the Modified Dulbecco Minimum Essential Medium combined with 10% fetal serum was placed in a culture dish. The cytotoxic activity was observed on various cancer cells (set forth in Table 1 below) that were serially cultured in this medium in a CO2 incubator. First, the respective cancer cells were suspended in the aforementioned culture medium at a concentration of 5×10^4 cells/ml. Then 135 μl of the suspension was added to a micro-titer plate having 96 wells. Next, 15 μl of the test compound solution was added, and the plates were incubated in CO2 for 3 days. The survival of the cells after the incubation period was determined by the MTT assay (Igaku no Ayumi, Vol. 128, pages 733-735, 1984).

Meth-A = test: In vitro cytotoxicity, MTT assay, Meth-A; type: cell-based, murine; details: Mus musculus, 72 h, 3 days incubation, read-out: IC50 (drug concentration to kill 50% of the cells)
Method: as §1

prostaglandin synthesis = details: literature; cited from earlier work
[1] = tested on: Lewis carcinoma of the lung; test: In vitro cytotoxicity, MTT assay, Lewis carcinoma of the lung; type: cell-based; details: 72 h, 3 days incubation, read-out: IC50 (drug concentration to kill 50% of the cells)
Method: as §1

cancer cells = test: In vitro cytotoxicity on various cancer cells (MTT assay), summary; type: cell-based; details: as indicated in Table 1
Method: as §1

P388 = test: In vitro cytotoxicity, MTT assay, P388; type: cell-based; details: Mus musculus, 72 h, 3 days incubation, read-out: IC50 (drug concentration to kill 50% of the cells)
Method: as §1

[2] = Acute toxicity in Balb/c mice; details: mouse, in vivo, ip, injected into the peritoneal cavity, 7-week-old females, survival over 2 weeks, suspension in 1% CMC
Method: Xanthocillin X dimethylether (by way of the same suspension as used in Example 3) was injected into the peritoneal cavity of Balb/c mice (7-week-old females). The animals were reared for the next 2 weeks and their survival was recorded.

Structure (SMILES): [C-]#[N+]C(=Cc1ccc(OC)cc1)C(=Cc1ccc(OC)cc1)[N+]#[C-] [xanthocillin X dimethylether]
- Percentage suppression of tumor growth (Meth-A solid tumor; 30 mg/kg/day intraperitoneally, once daily for 4 consecutive days, after 2 weeks, computed from tumor weights versus control (1% CMC)): 88.5 Percentage
- Tumor weight (Meth-A solid tumor; 30 mg/kg/day intraperitoneally, once daily for 4 consecutive days, tumor excised after 2 weeks, mean ± standard deviation, control 0.96 ± 0.60 g): 0.11 ± 0.10 g
- suppression of growth of Meth-A solid tumors (in words) (Meth-A solid tumor; as shown in Table 2): markedly suppressed the growth of Meth-A solid tumors
- IC50 (B16): 0.45 µg/mL (≈ 1.42 µM)
- IC50 (Meth-A): 0.71 µg/mL (≈ 2.24 µM)
- inhibition of prostaglandin synthesis (in words) (prostaglandin synthesis): specific inhibitor of prostaglandin synthesis
- IC50 [1]: 0.46 µg/mL (≈ 1.45 µM)
- cytotoxicity to a series of cancer cells (in words) (cancer cells): cytotoxic to a series of cancer cells
- IC50 (P388): 0.67 µg/mL (≈ 2.12 µM)
- LD50 at 336 h [2]: > 120 mg/kg
